Experimental data published in ChEMBL document CHEMBL1126639, “Centrally acting serotonergic and dopaminergic agents. 2. Synthesis and structure-activity relationships of 2,3,3a,4,9,9a-hexahydro-1H-benz[f]indole derivatives” (J Med Chem, 1993).

Tests used:
Mus musculus [1] = assay: Antagonism of apomorphine for 10-20 minutes in reserpinized mice when a dose of 38 micro mol/kg is administered intraperitoneally; assay type: functional
Rattus norvegicus [2] = assay: Inhibition of firing rates of dopaminergic neurons in the substantia nigra pars compacta by intravenous injection in rats; assay type: functional
Mus musculus [3] = assay: Antagonism of apomorphine in reserpinized mice when a dose of 3.8 micro mol/kg is administered intraperitoneally; assay type: functional
Mus musculus [4] = assay: Antagonism of apomorphine for 0-10 minutes in reserpinized mice when a dose of 38 micro mol/kg is administered intraperitoneally; assay type: functional
Mus musculus [5] = assay: Ability to stimulate dopaminergic systems by effect on locomotor activity in reserpinized mice when a dose of 0.4 micro mol/kg is administered intraperitoneally; assay type: functional
Mus musculus [6] = assay: Antagonism of apomorphine in reserpinized mice when a dose of 38 micro mol/kg is administered intraperitoneally; assay type: functional
Mus musculus [7] = assay: Antagonism of apomorphine for 0-10 minutes in reserpinized mice when a dose of 0.4 micro mol/kg is administered intraperitoneally; assay type: functional
Mus musculus [8] = assay: Antagonism of apomorphine in reserpinized mice when a dose of 0.4 micro mol/kg is administered intraperitoneally; assay type: functional
Mus musculus [9] = assay: Ability to stimulate dopaminergic systems by effect on locomotor activity in reserpinized mice when a dose of 38 micro mol/kg is administered intraperitoneally; assay type: functional
Mus musculus [10] = assay: Antagonism of apomorphine for 0-10 minutes in reserpinized mice when a dose of 3.8 micro mol/kg is administered intraperitoneally; assay type: functional
Mus musculus [11] = assay: Antagonism of apomorphine for 10-20 minutes in reserpinized mice when a dose of 0.4 micro mol/kg is administered intraperitoneally; assay type: functional
D(2) dopamine receptor [12] = target: T1, D(2) dopamine receptor (Rattus norvegicus, UniProt P61169); assay: Binding affinity for [3H]raclopride-labeled dopamine receptor D2 in rat striatum; assay type: tissue-based
T1 sequence (P61169 whole entry): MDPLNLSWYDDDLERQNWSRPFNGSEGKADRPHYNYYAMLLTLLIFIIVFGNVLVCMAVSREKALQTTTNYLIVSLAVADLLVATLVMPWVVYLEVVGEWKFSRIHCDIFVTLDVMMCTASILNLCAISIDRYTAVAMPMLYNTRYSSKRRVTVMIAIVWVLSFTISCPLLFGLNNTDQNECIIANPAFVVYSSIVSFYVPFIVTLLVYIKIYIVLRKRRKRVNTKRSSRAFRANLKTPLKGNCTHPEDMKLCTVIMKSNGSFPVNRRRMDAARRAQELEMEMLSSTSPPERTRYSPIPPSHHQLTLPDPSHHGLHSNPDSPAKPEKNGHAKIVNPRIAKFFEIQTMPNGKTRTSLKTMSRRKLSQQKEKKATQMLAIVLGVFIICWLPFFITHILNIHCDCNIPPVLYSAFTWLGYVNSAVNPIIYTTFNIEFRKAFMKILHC

Rattus norvegicus [13] = assay: Inhibition of firing rates of serotonergic neurons in the dorsal raphe nucleus by intravenous injection in rats; assay type: functional; conditions: Rattus norvegicus, Dorsal raphe nucleus, iv; read-out: ED50
D(2) dopamine receptor [14] = target: D(2) dopamine receptor (Homo sapiens, UniProt P14416); assay: Binding affinity against [3H]U-86,170-labeled dopamine receptor D2 in cloned CHO cells; assay type: cell-based
Sequence of D(2) dopamine receptor (Homo sapiens, UniProt P14416) (P14416 whole entry): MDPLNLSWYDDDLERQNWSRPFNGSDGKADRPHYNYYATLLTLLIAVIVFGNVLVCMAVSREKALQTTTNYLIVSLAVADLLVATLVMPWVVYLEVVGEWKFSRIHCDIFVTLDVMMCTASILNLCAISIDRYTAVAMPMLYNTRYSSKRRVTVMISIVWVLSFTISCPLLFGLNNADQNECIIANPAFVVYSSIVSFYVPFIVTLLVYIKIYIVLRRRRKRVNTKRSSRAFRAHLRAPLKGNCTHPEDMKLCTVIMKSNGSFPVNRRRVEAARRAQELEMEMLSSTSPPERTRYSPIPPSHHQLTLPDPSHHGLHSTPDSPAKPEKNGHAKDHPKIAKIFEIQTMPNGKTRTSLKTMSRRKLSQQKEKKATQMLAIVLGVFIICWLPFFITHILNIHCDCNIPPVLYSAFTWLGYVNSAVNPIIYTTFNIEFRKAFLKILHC

Mus musculus [15] = assay: Antagonism of apomorphine for 10-20 minutes in reserpinized mice when a dose of 3.8 micro mol/kg is administered intraperitoneally; assay type: functional
Mus musculus [16] = assay: Ability to stimulate dopaminergic systems by effect on locomotor activity in reserpinized mice when a dose of 3.8 micro mol/kg is administered intraperitoneally; assay type: functional
Mus musculus [17] = assay: Maximum decrease in temperature when compound is administered through peroral route; assay type: functional
Mus musculus [18] = assay: Effective dose on hypothermia in mouse when administered subcutaneously; assay type: functional; conditions: Mus musculus, sc; read-out: ED50
Mus musculus [19] = assay: Maximum decrease in temperature when compound is administered subcutaneously; assay type: functional
Mus musculus [20] = assay: Time of effect in the isolation-induced aggression behavioral assay in the mouse when a dose of 3.4 micro mol/kg is administered perorally; assay type: functional
Mus musculus [21] = assay: Effective dose on hypothermia in mouse when administered through peroral route; assay type: functional; conditions: Mus musculus, po; read-out: ED50
D(2) dopamine receptor [22] = target: T1, D(2) dopamine receptor; assay: Compound was evaluated for the binding affinity against [3H]raclopride-labeled dopamine receptor D2 in rat striatum; assay type: tissue-based
Mus musculus [23] = assay: Time of effect in the face-to-face behavioral assay in the mouse when a dose of 0.3 micro mol/kg is administered perorally; assay type: functional
Mus musculus [24] = assay: Time of effect in the face-to-face behavioral assay in the mouse when a dose of 3.4 micro mol/kg is administered perorally; assay type: functional
Mus musculus [25] = assay: Time of effect in the face-to-face behavioral assay in the mouse when a dose of 0.0 micro mol/kg is administered perorally; assay type: functional
Mus musculus [26] = assay: Time of effect in the face-to-face behavioral assay in the mouse when a dose of 34 micro mol/kg is administered perorally; assay type: functional
Mus musculus [27] = assay: Time of effect in the isolation-induced aggression behavioral assay in the mouse when a dose of 10 micro mol/kg is administered perorally; assay type: functional
Mus musculus [28] = assay: Antagonism of apomorphine for 0-10 minutes in reserpinized mice when a dose of 0.3 micro mol/kg is administered intraperitoneally; assay type: functional
Rattus norvegicus [29] = assay: Effect on the synthesis rates of dopamine in the rat ventral limbic brain region at 3.2 micro mol/kg; assay type: functional, Limbic system
Mus musculus [30] = assay: Antagonism of apomorphine for 10-20 minutes in reserpinized mice when a dose of 0.3 micro mol/kg is administered intraperitoneally; assay type: functional
Mus musculus [31] = assay: Antagonism of apomorphine in reserpinized mice when a dose of 0.3 micro mol/kg is administered intraperitoneally; assay type: functional
Mus musculus [32] = assay: Antagonism of apomorphine in reserpinized mice when a dose of 0.03 micro mol/kg is administered intraperitoneally; assay type: functional
Rattus norvegicus [33] = assay: Effect on the synthesis rates of serotonin in the rat ventral limbic brain region 3.2 micro mol/kg. Values are given as percent change from the control; assay type: functional, Limbic system
Mus musculus [34] = assay: Ability to stimulate dopaminergic systems by effect on locomotor activity in reserpinized mice when a dose of 0.3 micro mol/kg is administered intraperitoneally; assay type: functional
Mus musculus [35] = assay: Antagonism of apomorphine for 0-10 minutes in reserpinized mice when a dose of 32 micro mol/kg is administered intraperitoneally; assay type: functional
Mus musculus [36] = assay: Antagonism of apomorphine for 10-20 minutes in reserpinized mice when a dose of 32 micro mol/kg is administered intraperitoneally; assay type: functional
Mus musculus [37] = assay: Antagonism of apomorphine for 10-20 minutes in reserpinized mice when a dose of 3.2 micro mol/kg is administered intraperitoneally; assay type: functional
Mus musculus [38] = assay: Ability to stimulate dopaminergic systems by effect on locomotor activity in reserpinized mice when a dose of 0.03 micro mol/kg is administered intraperitoneally; assay type: functional
Rattus norvegicus [39] = assay: Inhibition of firing rates of dopaminergic neurons in the substantia nigra pars compacta by intravenous injection in rats.; assay type: functional
Mus musculus [40] = assay: Ability to stimulate dopaminergic systems by effect on locomotor activity in reserpinized mice when a dose of 32 micro mol/kg is administered intraperitoneally; assay type: functional
Mus musculus [41] = assay: Antagonism of apomorphine for 10-20 minutes in reserpinized mice when a dose of 0.03 micro mol/kg is administered intraperitoneally; assay type: functional
Mus musculus [42] = assay: Ability to stimulate dopaminergic systems by effect on locomotor activity in reserpinized mice when a dose of 3.2 micro mol/kg is administered intraperitoneally; assay type: functional
Mus musculus [43] = assay: Antagonism of apomorphine for 0-10 minutes in reserpinized mice when a dose of 3.2 micro mol/kg is administered intraperitoneally; assay type: functional
Mus musculus [44] = assay: Antagonism of apomorphine in reserpinized mice when a dose of 3.2 micro mol/kg is administered intraperitoneally; assay type: functional
Mus musculus [45] = assay: Antagonism of apomorphine for 0-10 minutes in reserpinized mice when a dose of 0.03 micro mol/kg is administered intraperitoneally; assay type: functional
Mus musculus [46] = assay: Antagonism of apomorphine in reserpinized mice when a dose of 32 micro mol/kg is administered intraperitoneally; assay type: functional

Compound C=CCN1CC[C@@H]2Cc3c(O)cccc3C[C@H]21 (racemic) has a Locomotor activity (Mus musculus [1]) of 46, an ED50 (Rattus norvegicus [2]) of 0.007 µmol/kg and a Locomotor activity (Mus musculus [3]) of 133. The Locomotor activity (Mus musculus [4]) was 55, the Locomotor activity (Mus musculus [5]) was 450 and the Locomotor activity (Mus musculus [6]) was 123. For the same compound, the Locomotor activity (Mus musculus [7]) was 61, the Locomotor activity (Mus musculus [8]) was 108 and the Locomotor activity (Mus musculus [9]) was 1783. For the same compound, the Locomotor activity (Mus musculus [10]) was 40, the Locomotor activity (Mus musculus [11]) was 77 and the Ki (D(2) dopamine receptor [12]) was 47 nM. The ED50 (Rattus norvegicus [13]) was 0.35 µmol/kg, the Ki (D(2) dopamine receptor [14]) was 235 nM and the Locomotor activity (Mus musculus [15]) was 54. It also gave a Locomotor activity (Mus musculus [16]) of 1409.

In the case of COc1cccc2c1C[C@H]1CCN(CC3CC3)[C@@H]1C2 (racemic), the Max temperature decrease (Mus musculus [17]) is reported as 6.2, the ED50 (Mus musculus [18]) is reported as 19 µmol/kg and the Max temperature decrease (Mus musculus [19]) is reported as 7. For the same compound, the Time (Mus musculus [20]) was 58 s, the ED50 (Mus musculus [21]) was 25 µmol/kg and the Ki (D(2) dopamine receptor [22]) was > 1000 nM. The Time (Mus musculus [23]) was 0.9 s, the Time (Mus musculus [24]) was 1.6 s and the Time (Mus musculus [25]) was 1 s. It also gave a Time (Mus musculus [26]) of 1.5 s and a Time (Mus musculus [27]) of 177 s.

CN1CCc2cccc3c2[C@H]1Cc1ccc(O)c(O)c1-3 [APOMORPHINE] gave a Locomotor activity (Mus musculus [28]) of 73, a Control (Rattus norvegicus [29]) of -55% and a Locomotor activity (Mus musculus [30]) of 96. The Locomotor activity (Mus musculus [31]) was 135, the Locomotor activity (Mus musculus [32]) was 119 and the Control (Rattus norvegicus [33]) was 17%. It also gave a Locomotor activity (Mus musculus [34]) of 150, a Locomotor activity (Mus musculus [35]) of 69 and a Locomotor activity (Mus musculus [36]) of 66. For the same compound, the Locomotor activity (Mus musculus [37]) was 42, the Locomotor activity (Mus musculus [38]) was 22 and the ED50 (Rattus norvegicus [39]) was 0.031 µmol/kg. The Locomotor activity (Mus musculus [40]) was 1184, the Locomotor activity (Mus musculus [41]) was 86 and the Locomotor activity (Mus musculus [42]) was 1777. For the same compound, the Locomotor activity (Mus musculus [43]) was 52, the Locomotor activity (Mus musculus [44]) was 139 and the Locomotor activity (Mus musculus [45]) was 78. For the same compound, the Locomotor activity (Mus musculus [46]) was 113.
